The values below come from patent US9662372B2 (priority 2013, dated 2017).

The subject of one test is C. difficile ATCC 9689.
Experiment: not given
The test is classed as cell-based, Clostridium difficile.
Details: not given
For `CCCCN` [N-Butylamine], the “Toxin” value amounted to 5679 ng/mL. For the molecule `Nc1ccn([C@@H]2O[C@@H]3COP(=O)(O)O[C@H]3[C@H]2O)c(=O)n1` [Cytidine 3′,5′-Cyclic Monophosphate], the “Toxin” value is 321 ng/mL. For `O=C[C@H](O)[C@@H](O)[C@H](O)[C@H](O)CO` [D-glucose], the “Average dye reduction rate of CHO-k1 in the presence of C. difficile supernatant” value stood at 57.19 and the “Corrected dye reduction rate” value worked out at 54.6.

Another test has as its system C. difficile ATCC 9689. Description: Bacterial mass in wells of PM panels (OD 750 nm). The following applies: OD difference with vs without C. difficile, 72 h; carbon source (PM01/PM02). It counts as cell-based, Clostridium difficile.
For the molecule `CC(=O)N[C@H]1[C@H]([C@H](O)[C@H](O)CO)OC(O)(C(=O)O)C[C@@H]1O` (some centres unmarked) [N-Acetyl-Neuraminic acid], the “C. difficile Mass” value is 0.1163 OD (750 nm).

Turning to `CC(=O)C(=O)O` [Pyruvic Acid], the “C. difficile Mass” value is on record as 0.093 OD (750 nm). `CC(=O)N[C@H]1C(O)O[C@H](CO)[C@@H](O)[C@@H]1O` (stereo partly drawn) [N-Acetyl-D-Glucosamine]: the “C. difficile Mass” value was 0.0955 OD (750 nm). For Dextrin, the “C. difficile Mass” value is on record as 0.0478 OD (750 nm). On to `C[C@@H](N)C(=O)O` [D-Alanine], for which the “C. difficile Mass” value is 0.1233 OD (750 nm).

`OC[C@H]1O[C@@H](Oc2ccc(O)cc2)[C@H](O)[C@@H](O)[C@@H]1O` [Arbutin]: the “C. difficile Mass” value is listed as 0.128 OD (750 nm). As to `O=C[C@@H](O)[C@@H](O)[C@H](O)CO` [D-Lyxose], the “C. difficile Mass” value is recorded as 0.1508 OD (750 nm). In the case of `CCCCCCCCCC(=O)O` [Capric acid], the “C. difficile Mass” value is on record as 0.014 OD (750 nm). Consider `OCc1ccccc1O[C@@H]1O[C@H](CO)[C@@H](O)[C@H](O)[C@H]1O` [Salicin], for which the “C. difficile Mass” value was 0.1291 OD (750 nm). The same measure, in the same setting: for `CC(C)C[C@H](N)C(=O)O` [L-Leucine] the value was 0.089 OD (750 nm); for `O=C(O)CC(Br)C(=O)O` (centres unmarked) [Bromosuccinic Acid], 0.0335 OD (750 nm); for `N[C@H](CC(=O)O)C(=O)O` [D-Aspartic acid], 0.0269 OD (750 nm). `C[C@H](O)[C@@H](N)C(=O)O` [D-Threonine]: the “C. difficile Mass” value was 0.0923 OD (750 nm).

`CSCC[C@H](N)C(=O)O` [L-Methionine]: the “C. difficile Mass” value is on record as 0.0818 OD (750 nm). Turning to `CC(C)[C@H](N)C(=O)O` [L-Valine], the “C. difficile Mass” value is reported as 0.0917 OD (750 nm). Consider `NCCc1ccccc1` [β-Phenylethylamine], for which the “C. difficile Mass” value is recorded as 0.0477 OD (750 nm). Take `CCCCCC(=O)O` [Caproic acid]: the “C. difficile Mass” value was 0.0568 OD (750 nm). The same measure, in the same setting: next, `O=C(CO)[C@@H](O)[C@@H](O)[C@H](O)CO` [D-Tagatose]: 0.138 OD (750 nm); `N[C@@H](Cc1ccccc1)C(=O)O` [L-Phenylalanine]: 0.0714 OD (750 nm); `C[C@@H](O)[C@H](N)C(=O)O` [L-Threonine]: 0.0643 OD (750 nm). As to `N[C@H](CO)C(=O)O` [D-Serine], the “C. difficile Mass” value was 0.1114 OD (750 nm). On to `O=C(O)/C=C/C(=O)O` [Fumaric Acid], for which the “C. difficile Mass” value is recorded as 0.018 OD (750 nm). The same measure, in the same setting: next, `C[C@H](N)C(=O)O` [L-Alanine]: 0.113 OD (750 nm); `O=C(CO)[C@@H](O)[C@H](O)[C@H](O)CO` [D-Fructose]: 0.1435 OD (750 nm); `N[C@@H](CCO)C(=O)O` [L-Homoserine]: 0.0071 OD (750 nm).

For `N[C@@H](CO)C(=O)O` [L-Serine], the “C. difficile Mass” value is 0.0635 OD (750 nm).

Still in this test, the particulars now being: OD difference with vs without C. difficile, 72 h; nitrogen source (PM03/06/07/08).
For `NCCC[C@H](N)C(=O)O` [L-Ornithine], the “C. difficile Mass” value is 0.0369 OD (750 nm). For the molecule `CCCCN` [N-Butylamine], the “C. difficile Mass” value is 0.0407 OD (750 nm). Regarding `Cc1cn([C@H]2C[C@H](O)[C@@H](CO)O2)c(=O)[nH]c1=O` [Thymidine], the “C. difficile Mass” value is given as 0.0384 OD (750 nm).

Regarding `O=c1cc[nH]c(=O)[nH]1` [Uracil], the “C. difficile Mass” value is 0.0375 OD (750 nm). For the molecule `CC(=O)N[C@H]1C(O)O[C@H](CO)[C@H](O)[C@@H]1O` (stereo partly drawn) [N-Acetyl-D-Galactosamine], the “C. difficile Mass” value is 0.0355 OD (750 nm).

On to `N[C@@H](Cc1c[nH]c2ccccc12)C(=O)O` [L-Tryptophan], for which the “C. difficile Mass” value was 0.0299 OD (750 nm).

As to `Nc1ccn([C@@H]2O[C@H](CO)[C@@H](O)[C@H]2O)c(=O)n1` [Cytidine], the “C. difficile Mass” value was 0.0456 OD (750 nm). Turning to `C[C@@H](N)C(=O)O` [D-Alanine], the “C. difficile Mass” value is reported as 0.038 OD (750 nm). On to `Nc1cc[nH]c(=O)n1` [Cytosine], for which the “C. difficile Mass” value was 0.0361 OD (750 nm). Consider `NC(=O)[C@@H](O)[C@@H](O)[C@H](O)[C@@H](O)C=O` [Glucuronamide], for which the “C. difficile Mass” value is on record as 0.0369 OD (750 nm). For `O=c1[nH]c(=O)c2[nH]cnc2[nH]1` [Xanthine], the “C. difficile Mass” value was 0.2978 OD (750 nm). In the case of `N[C@@H](CS)C(=O)O` [L-Cysteine], the “C. difficile Mass” value was 0.0394 OD (750 nm). Turning to `NC(=O)NC1NC(=O)NC1=O` (centres unmarked) [Allantoin], the “C. difficile Mass” value is listed as 0.0425 OD (750 nm).

For `NCCCC[C@@H](N)C(=O)O` [D-Lysine], the “C. difficile Mass” value is listed as 0.0489 OD (750 nm). For `NC(=O)C[C@@H](N)C(=O)O` [D-Asparagine], the “C. difficile Mass” value is reported as 0.0321 OD (750 nm).

As to `N=C(N)NCCC[C@H](N)C(=O)O` [L-Arginine], the “C. difficile Mass” value is recorded as 0.046 OD (750 nm). Regarding `CN` [Methylamine], the “C. difficile Mass” value is 0.0398 OD (750 nm). For `Nc1ncnc2c1ncn2[C@@H]1O[C@H](CO)[C@@H](O)[C@H]1O` [Adenosine], the “C. difficile Mass” value is reported as 0.0472 OD (750 nm). As to `NC(=O)NCCC[C@H](N)C(=O)O` [L-Citrulline], the “C. difficile Mass” value was 0.0377 OD (750 nm).

With `NCCN` [Ethylenediamine], the “C. difficile Mass” value is recorded as 0.0369 OD (750 nm).

As to `O=c1[nH]c(=O)c2ncn([C@@H]3O[C@H](CO)[C@@H](O)[C@H]3O)c2[nH]1` [Xanthosine], the “C. difficile Mass” value is on record as 0.0516 OD (750 nm). As for `NCCCC[C@H](N)C(=O)O` [L-Lysine], the “C. difficile Mass” value is reported as 0.0436 OD (750 nm). The same measure, in the same setting: for `NCCCC(=O)O` [γ-Aminobutyric acid] the value was 0.0375 OD (750 nm); for `O=c1ccn([C@@H]2O[C@H](CO)[C@@H](O)[C@H]2O)c(=O)[nH]1` [Uridine], 0.0373 OD (750 nm). `N[C@H](CC(=O)O)C(=O)O` [D-Aspartic acid]: the “C. difficile Mass” value is 0.0109 OD (750 nm).

On to `N=C(N)NCCCCN` [Agmatine], for which the “C. difficile Mass” value is 0.043 OD (750 nm). On the same count and under the same terms, for `NC=O` [Formamide] the value was 0.0418 OD (750 nm); for `CC(C)[C@H](N)C(=O)O` [L-Valine], 0.0431 OD (750 nm); for `N[C@@H](Cc1ccc(O)cc1)C(=O)O` [L-Tyrosine], 0.1528 OD (750 nm). As for `CCCCCN` [N-Amylamine], the “C. difficile Mass” value was 0.0433 OD (750 nm). Same read-out and setting: for `NCCc1ccccc1` [β-Phenylethylamine] the value was 0.0448 OD (750 nm); for `NCCc1ccc(O)cc1` [Tyramine], 0.0442 OD (750 nm); for `N[C@H]1C(O)O[C@H](CO)[C@@H](O)[C@@H]1O` (stereo partly drawn) [D-Glucosamine], 0.0447 OD (750 nm).

As to `Nc1nc2c(ncn2[C@@H]2O[C@H](CO)[C@@H](O)[C@H]2O)c(=O)[nH]1` [Guanosine], the “C. difficile Mass” value is recorded as 0.0092 OD (750 nm).

As for `CC(N)=O` [Acetamide], the “C. difficile Mass” value is 0.0458 OD (750 nm). Same read-out and setting: next, `Cc1c[nH]c(=O)[nH]c1=O` [Thymine]: 0.0338 OD (750 nm); `CCCCCCC(N)C(=O)O` (racemic) [D,L-α-Amino-Caprylic acid]: 0.0484 OD (750 nm). For the molecule `NC(=O)NC(N)=O` [Biuret], the “C. difficile Mass” value is recorded as 0.0394 OD (750 nm). `O=c1[nH]c(=O)c2[nH]c(=O)[nH]c2[nH]1` [Uric acid]: the “C. difficile Mass” value is recorded as 0.0556 OD (750 nm). Regarding `CC[C@H](C)[C@H](N)C(=O)O` [L-Isoleucine], the “C. difficile Mass” value is reported as 0.0563 OD (750 nm). `NCCCCN` [Putrescine]: the “C. difficile Mass” value was 0.0339 OD (750 nm). In the case of `N[C@@H](Cc1c[nH]cn1)C(=O)O` [L-Histidine], the “C. difficile Mass” value is recorded as 0.0361 OD (750 nm). For `CCN` [Ethylamine], the “C. difficile Mass” value is 0.0401 OD (750 nm).

Take `N[C@H]1C(O)O[C@H](CO)[C@H](O)[C@@H]1O` (stereo partly drawn) [D-Galactosamine]: the “C. difficile Mass” value is 0.0374 OD (750 nm). The same measure, in the same setting: for `N[C@H](CO)C(=O)O` [D-Serine] the value was 0.0465 OD (750 nm); for `NC(=O)CC[C@H](N)C(=O)O` [L-Glutamine], 0.0339 OD (750 nm).

In the case of `N[C@@H](CCO)C(=O)O` [L-Homoserine], the “C. difficile Mass” value is recorded as 0.0293 OD (750 nm). Consider `NCCc1c[nH]cn1` [Histamine], for which the “C. difficile Mass” value is 0.0424 OD (750 nm). Turning to `N[C@@H]1C(O)O[C@H](CO)[C@@H](O)[C@@H]1O` (stereo partly drawn) [D-Mannosamine], the “C. difficile Mass” value was 0.0364 OD (750 nm).

Staying with this test, now noted: OD difference with vs without C. difficile, 72 h; nutritional stimulant panel PM05.
On to `Nc1ncnc2c1ncn2[C@@H]1O[C@H](CO)[C@@H](O)[C@H]1O` [Adenosine], for which the “C. difficile Mass” value is given as 0.0414 OD (750 nm).

The same test, now with this note: OD difference with vs without C. difficile, 72 h; phosphorus/sulfur source panel PM04.
In the case of `Nc1ccn([C@@H]2O[C@@H]3COP(=O)(O)O[C@H]3[C@H]2O)c(=O)n1` [Cytidine 3′,5′-Cyclic Monophosphate], the “C. difficile Mass” value is 0.0106 OD (750 nm). Same read-out and setting: for `C[C@H](CCC(=O)NCCS(=O)(=O)O)[C@H]1CC[C@H]2[C@@H]3[C@H](O)C[C@@H]4C[C@H](O)CC[C@]4(C)[C@H]3C[C@H](O)[C@]12C` [Taurocholic acid] the value was 0.0536 OD (750 nm); for `O=S(=O)(O)CCO` [2-Hydroxyethane Sulfonic acid], 0.0428 OD (750 nm); for `Nc1ncnc2c1ncn2[C@@H]1O[C@H](COP(=O)(O)O)[C@@H](O)[C@H]1O` [Adenosine 5′-Monophosphate], 0.0495 OD (750 nm).

For the molecule `O=S1(=O)CCCC1` [Tetramethylene Sulfone], the “C. difficile Mass” value is listed as 0.0442 OD (750 nm). Consider `NCCS(=O)(=O)O` [Taurine], for which the “C. difficile Mass” value is listed as 0.0505 OD (750 nm).

As to `CCCCS(=O)(=O)O` [Butane Sulfonic acid], the “C. difficile Mass” value is reported as 0.0398 OD (750 nm). With `NCCS(=O)O` [Hypotaurine], the “C. difficile Mass” value was 0.0438 OD (750 nm). Turning to `Nc1ccc(S(=O)(=O)O)cc1` [p-Aminobenzene Sulfonic acid], the “C. difficile Mass” value is recorded as 0.0485 OD (750 nm).
